{"source": "patent USRE42412E1", "about": "“Materials and methods for the treatment of gastroesophageal reflux disease” (ARYx Therapeutics, Inc., priority 2000, dated 2011)", "origin": "cited, not measured here", "key": {"[1]": {"details": "of a dose of cisapride"}, "[2]": {"details": "between July 1993 and December 1999"}, "5HT4 receptors": {"target": "5HT4 receptors (Homo sapiens, UniProt Q13639)", "sequence (Q13639 whole entry)": "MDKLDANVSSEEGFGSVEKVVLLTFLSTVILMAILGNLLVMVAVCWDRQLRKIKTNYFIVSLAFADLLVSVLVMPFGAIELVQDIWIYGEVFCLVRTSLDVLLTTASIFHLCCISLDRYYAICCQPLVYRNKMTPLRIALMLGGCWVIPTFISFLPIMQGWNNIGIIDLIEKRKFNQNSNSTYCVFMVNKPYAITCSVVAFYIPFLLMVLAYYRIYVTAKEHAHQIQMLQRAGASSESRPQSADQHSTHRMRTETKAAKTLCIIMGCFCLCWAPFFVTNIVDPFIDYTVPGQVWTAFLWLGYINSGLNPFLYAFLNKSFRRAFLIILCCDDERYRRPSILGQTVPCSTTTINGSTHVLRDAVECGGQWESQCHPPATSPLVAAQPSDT"}}}
{"smiles": "COc1cc(N)c(Cl)cc1C(=O)NC1CCN(CCCOc2ccc(F)cc2)CC1OC", "note": "(stereo not shown) [cisapride]", "values": [{"measurement": "fraction of dose metabolized by oxidative N-dealkylation at the piperidine nitrogen or aromatic hydroxylation", "setting": "[1]", "result": "More than 90%"}, {"measurement": "deaths reported", "setting": "[2]", "result": 80}, {"measurement": "serious cardiac arrhythmias reportedly associated", "setting": "[2]; ventricular tachycardia, ventricular fibrillation, torsades de pointes, QT prolongation", "result": "at least 341"}, {"measurement": "ligand potency at 5HT4 receptors", "setting": "5HT4 receptors", "result": "potent ligand"}]}
